Earlier results on two compounds are cited in article PMC3826776 (Bioorganic & medicinal chemistry letters, 2011).

Each structure is given as a SMILES string.

Series [1] deals with brain p-glycoprotein efflux pump (P-gp). The conditions noted are these: stated without reference.
Series [2] deals with mGluR5. To be noted: read-out: IC50 (literature values); literature value.
Series [3] concerns the target mGluR5. To be noted: read-out: Ki (literature values); literature value.

One may read the IC50 as the concentration needed to halve the response being measured. What is called Ki is a dissociation constant, usually derived from enzyme kinetics or from competition with a known ligand. For the compound `Cc1cccc(C#Cc2ccccc2)n1` [MPEP, 2-methyl-6-(phenylethynyl)-pyridine], in series [1], the P-gp substrate entry was “not P-gp substrates”. Also, the half-inhibitory concentration (IC50) with mGluR5 [2] is 2 nM. Also, the Ki at mGluR5 [3] was 12 nM.

With `Cc1nc(C#Cc2cccnc2)cs1` [MTEP, 3-[(2-methyl-1,3-thiazol-4yl)-ethynyl]-pyridine], the P-gp substrate result in series [1] was “not P-gp substrates”.
